Reference: patent US4254123A, “Novel imidazoquinoxalines” (Roussel Uclaf, priority 1978, dated 1981)
Read-outs that look alike come from different tables or passages of the source.

System: Passive cutaneous anaphylaxis
Assay: Passive cutaneous anaphylaxis (PCA) in rats
Assay type: in vivo
Details: dosed immediately prior to i.v. antigen/Evans blue challenge, blueing scored after 30 minutes; for ED50: Rattus norvegicus, 0.5 h
Description: Cutaneous anaphylaxis can be induced in rats by intradermal (ID) sensitization with antiserum followed three days later by systemic challenge with antigen. Evans blue dye injected with the antigen is used as a marker to assess the severity of the local response. Anti-allergic drugs inhibit this reaction. […] Brown: Pergamon Press:-male rats weighing 180-220 grams are used in groups of seven.
1. Wash 120 grams of Al(OH)3 gel in 140 ml of saline (use of a macerater facilitates mixing).
2. Centrifuge at 3,000 r.p.m. for about 10 minutes.
3. Resuspend the precipitate with 300 ml of albumen egg powder (1.3 mg/ml) in saline and allow to stand for 30 minutes.
4. Centrifuge at 3,000 r.p.m. for 10 minutes.
5. Weigh the wet precipitate and to each gram weight add 1 ml of saline. Store in refrigerator (Quantity sufficient for 60 rats for a 3 day sensitization program).
1 ml of the alum precipitated ovalbumen was injected subcutaneously into rats weighing 180-200 grams on days 0,2,4. The rats were bled on day 14 either by cardiac puncture of via the dorsal abdominal aorta. Equal quantities of serum from each animal were pooled and thoroughly mixed and 2 ml aliquots were stored at -20° C. in plastic tubes.
(A) SENSITIZATION: The rats were anaesthetized with Nembutal (40-60 mg/kg i.p.) and were then sensitized by four ID injections (0.1 ml each) on their shaved backs. The animals were then left for a period of three days to develop sensitization.
The injections were speeded up by using an automatic 1 ml self-filling glass syringe. The "challenged" rats were killed after 30 minutes, (usually pithed) and their skin on the dorsal surface was removed. The degree and area of blueing, proportional to the anaphylactic reaction was assessed on a four point scoring system.
1. Total scores for sites 1,2,3 and 4=X
2. Mean value of X for each group=X
3. X t=X for test group; X c=X for control group [formula]

[1] = intravenous, read-out: ED 50 (dose of drug giving 50% inhibition), intravenously

Row | Compound | ED50 [1] [mg/kg] | ED 50 (dose of drug giving 50% inhibition), intravenously (intravenous) [mg/kg] | ED 50 (dose of drug giving 50% inhibition), orally (oral) [mg/kg] | ED50 (oral, read-out: ED 50 (dose of drug giving 50% inhibition), orally) [mg/kg]
1 | O=C(O)c1cn2c(cnc3cc(Cl)c(Cl)cc32)n1 [Example 3, 7,8-dichloro-imidazo-[1,2-a]-quinoxaline-2-carboxylic acid] | 0.2 |  |  | 
2 | 7- and 8-chloro-imidazo-[1,2-a]-quinoxaline-2-carboxylic acid [Example 4] |  | 0.12 | 0.71 | 
3 | NC(=O)c1nc2ccccc2n2cc(C(=O)O)nc12 [Example 6, 4-carbamoyl-imidazo-[1,2-a]-quinoxaline-2-carboxylic acid] | 3.13 |  |  | 
4 | O=C(O)c1cn2c(cnc3ccccc32)n1 [Example 1, Imidazo-[1,2-a]-quinoxaline-2-carboxylic acid] | 0.073 |  |  | 0.73
5 | CCOc1nc2ccccc2n2cc(C(=O)O)nc12 [Example 5, 4-ethoxy-imidazo-[1,2-a]-quinoxaline-2-carboxylic acid] | 0.83 |  |  | 
